Measurements taken from article PMC12474757, “Paving the way for future PSMA inhibitors: insights from comparative preclinical evaluations of structure modifications” (EJNMMI Radiopharmacy and Chemistry, 2025).
Where two headings read alike, the source gives them in different places.

What was measured:
[1] = tested on: LNCaP tumour-bearing mice; assay: Ex vivo biodistribution in LNCaP tumour-bearing mice; design: species or system SCID mice; conditions: for tumour-to-blood ratio / tumour-to-muscle ratio / tumour-to-kidney ratio: mean ± SD, n = 4
Experimental: The eight-week-old male SCID mice (Charles River, Massachusetts, USA) were used to generate the mouse tumour model. The implantation of 10 million LNCaP cells (ATCC, Virginia, USA) per mouse in a 1:1 mixture of Matrigel matrix (Corning, New York, USA) was performed subcutaneously behind the right shoulder of the mouse. Tumours of adequate size, representing a volume of 100–300 mm³, were observed after five to six weeks.
Ex vivo biodistribution of PSMA inhibitors in tumor-bearing mice was conducted as follows. Concisely, 30 µL of acetate buffer was added to the each ⁶⁸Ga -labelled inhibitor, namely: ⁶⁸Ga-P15, ⁶⁸Ga-P16, ⁶⁸Ga-P19, and ⁶⁸Ga-PSMA-617 to achieve physiological pH. Mice were r.o. injected with 100 µL of labelled inhibitor (2 MBq, approximately 0.5 µg of the inhibitor). Animals were divided into two groups for biodistribution studies at 1 and 2 h after administration of the respective ^68Ga-labelled PSMA inhibitor. The animals were sacrificed and autopsied after euthanasia, and organs: spleen, pancreas, stomach, intestine, kidney, liver, heart, lung, muscle, bone, and tumour were collected in scintillation vials. The vials containing the samples were weighed and measured in a Wizard2 gamma counter (PerkinElmer, USA). The measured values were then adjusted for radionuclide decay and expressed as a percentage of administered dose per gram of organ (%ID/g). The NanoScan® hybrid Positron Emission Tomography/Computed Tomography (PET/CT) machine (Mediso, Budapest, Hungary) was used for in vivo imaging specifically whole-body helical PET/CT scans. Imaging settings were: single field of view (FOV) PET scans (98.5 mm) which took 10 min for each mouse and helical CT scans (50 kVp/980 µA, 720 projections) both took place one hour after the administration. Each mouse received an injection of approximately 10 MBq of tested radiopharmaceutical. To prevent the mice’s eyes from drying out during anaesthesia eye ointment (Ophthalmo-Azulen, Zentiva, CR) was applied. Image reconstruction was performed using Mediso Tera-Tomo 3D PET iterative reconstruction (Mediso Medical Imaging Systems, Budapest, Hungary). Both reconstruction and data evaluation were performed in Mediso InterView FUSION software (Mediso Medical Imaging Systems, Budapest, Hungary) (Mediso, Budapest, Hungary). Final images were normalised to injected activity and animal weight. All organs with radiopharmaceutical accumulation were roughly delineated on the images, while their SUVmax value was recorded. The SUV41% (Standardized Uptake Value 41%) was then calculated as 41% of each SUVmax value of given hotspot and the ROI was delineated based on this value (Boellaard et al. [2015]). All images were exported in maximum intensity projection (MIP) mode. The results from the ex vivo biodistribution study were subjected to statistical analysis, namely unpaired Student’s t-test (Microsoft Excel 365, USA).

PSMA = PSMA affinity, cited from earlier work
[2] = Radiochemical stability in physiological pH water environment; type: physicochemical; conditions: pH 7, 37 °C; for Stability in Physiological pH (%): radiochemical purity, n = 1
Experimental: (§1) Quality control, i.e. radiochemical purity, of the ^68Ga-labelled PSMA inhibitors was evaluated by analytical high performance liquid chromatography (HPLC; Dionex UltiMate 3000, Thermo Scientific, Waltham, Massachusetts, USA) using the following equipment: ACE 3 C18 column; 150 × 3 mm, 3 μm (Advanced Chromatography Technologies Ltd, Aberdeen, UK), with gradient elution A: H2O/acetonitrile (ACN); B:0.1% trifluoroacetic acid (TFA)/H2O: 0–3 min, 0% ACN; 3–10 min, 0 − 50% ACN; 10–13 min, 50 − 80% ACN; 13–15 min, 80–0% ACN, for 15 min at a flow rate of 1 mL/min. Radiometric detection was performed using a GABI Star radiodetector (Raytest GmbH, Straubenhardt, Germany) and for chromatogram quantification Chromatography Data System (CDS) - Chromeleon software (Thermo Scientific, USA) was used. The actual sample injection was performed using a Hamilton microinjector (Hamilton, USA).
Radiochemical stability in a physiological pH water environment was determined as follows: 100 µL of acetate buffer (1.1 mol/L) was added to the labelled preparation and the pH was then checked with a pH indicator paper to be 7. The mixture was further incubated at 37 °C and after 30, 60 and 120 min, 10 µL aliquot was used for HPLC analysis of radiochemical purity.

human plasma proteins [3] = assay: Binding to human plasma proteins; type: in vitro ADME; conditions: for Protein binding (%): human plasma, 37 °C, n = 2
Experimental: (§2) Binding to human plasma proteins was determined following this procedure: 10 µL of the ⁶⁸Ga-P15 with radioactivity of 45 kBq/100 µL was mixed with 190 µL of human plasma. The sample was then incubated at 37 °C. After 0, 30, 60 and 120 min 25 µL of the sample was collected, applied to the appropriate column and centrifuged at 2000 g for 2 minutes. The radioactivity of the samples was then measured using a gamma counter 2480 Wizard^2 (PerkinElmer, Waltham, MA, USA), and then the binding to plasma proteins was calculated using the following formula % plasma protein binding = (Aelution/Atotal)×100. The same procedure was applied when determining binding to plasma proteins of ⁶⁸Ga-P16, ⁶⁸Ga-P19, and ⁶⁸Ga-PSMA-617.

[4] = Stability in human plasma/serum (radiochemical purity by HPLC); type: in vitro ADME; conditions: radiochemical purity, 37 °C, n = 1
Experimental: as §1
Plasma stability was determined as follows. To 100 µL of ⁶⁸Ga-P15 with radioactivity of 45 kBq/100 µL, 400 µL of human plasma was added and mixed. The mixture was incubated at 37 °C and 100 µL samples were taken at 30, 60 and 120 min. These samples were then mixed with 200 µL of acetonitrile and placed on a shaker for 1 min. The sample was then centrifuged at 15,000 rpm for 3 min. After centrifugation, the supernatant was collected for radiochemical purity analysis by HPLC. The same procedure was applied when determining plasma stability of ⁶⁸Ga-P16, ⁶⁸Ga-P19, and ⁶⁸Ga-PSMA-617.

human plasma proteins [5] = conditions: cited from earlier work
[6] = Stability in human plasma/serum (radiochemical purity by HPLC); type: in vitro ADME; conditions: 37 °C, incubation time 0 min, n = 1
mouse serum proteins = tested on: mouse serum proteins; design: method as in Umbricht et al. [2018]; conditions: ref Umbricht et al. [2018]; cited from earlier work
[7] = Binding to human plasma proteins; type: in vitro ADME; conditions: human plasma, 37 °C, n = 2, read-out: Protein binding (%) (converted)
Experimental: as §2

In the case of O=C(O)CC[C@H](NC(=O)N[C@@H](CCC(=O)N[C@H](Cc1ccc2ccccc2c1)C(=O)N[C@H]1CC[C@H](NC(=O)CN2CCN(CC(=O)O)CCN(CC(=O)O)CCN(CC(=O)O)CC2)CC1)C(=O)O)C(=O)O [P15, Glu-urea-Glu-2-Nal-D-Ala-NH-CHX-NH-DOTA], the “specific accumulation (tumour), fold lower than [68Ga]Ga-PSMA-617” value ([1]; one-hour p.i.) is reported as 7 fold and the “specific accumulation (tumour), fold lower than [68Ga]Ga-PSMA-617” value ([1]; two-hours p.i.) is reported as “more than 17.5 fold”.

For NCCCCC(NC(=O)NC(CCC(=O)O)C(=O)O)C(=O)O (centres unmarked) [Glu-urea-Lys], the Ki (PSMA; ref Banerjee et al. [2008]) is given as 15.2 nM.

In the case of O=C(O)CCC(NC(=O)NC(CCC(=O)O)C(=O)O)C(=O)O (centres unmarked) [Glu-urea-Glu], the Ki (PSMA; ref Kozikowski et al. [2001]) is listed as 47 nM.

In the case of O=C(O)CC[C@H](NC(=O)N[C@@H](CCCCNC(=O)[C@@H](NC(=O)c1ccc(CNC(=O)CN2CCN(CC(=O)O)CCN(CC(=O)O)CCN(CC(=O)O)CC2)cc1)C(c1ccccc1)c1ccccc1)C(=O)O)C(=O)O [P19, Glu-urea-Lys-3,3-diphenyl-L-Ala-AMBA-DOTA], the “Radiochemical purity in physiological pH environment” value ([2]; each time-point tested (30, 60, 120 min)) is reported as “highest stability”, the tumour-to-blood ratio ([1]; two-hours p.i.) is reported as 9.1 ± 1.7 and the tumour-to-muscle ratio ([1]; two-hours p.i.) is reported as 47.8 ± 12.4.

In the case of O=C([O-])CN1CCN(CC(=O)[O-])CCN(CC(=O)NCC2CCC(C(=O)NC(Cc3ccc4ccccc4c3)C(=O)NCCCCC(NC(=O)NC(CCC(=O)O)C(=O)O)C(=O)O)CC2)CCN(CC(=O)[O-])CC1.[68Ga+3] (centres unmarked) [[^68Ga]Ga-PSMA-617, reference compound], the “Protein binding (%)” value (human plasma proteins [3]; incubation time 0 min) is reported as 52.6%, the “Protein binding (%)” value (human plasma proteins [3]; incubation time 30 min) is reported as 52.9% and the “Protein binding (%)” value (human plasma proteins [3]; incubation time 60 min) is reported as 53.3%. For the same compound, the “Protein binding (%)” value (human plasma proteins [3]; incubation time 120 min) was 54.3%, the “Binding rate to human plasma proteins” value (human plasma proteins [3]; overall statement, incubation up to 120 min) was “approximately 54%” and the “Stability in human serum (%)” value ([4]; incubation time 30 min) was 97.8%. The “Stability in human serum (%)” value ([4]; incubation time 60 min) was 98.2%, the “Stability in human serum (%)” value ([4]; incubation time 120 min) was 98.7% and the “Stability in Physiological pH (%)” value ([2]; incubation time 0 min) was 98.4%. For the same compound, the “Stability in Physiological pH (%)” value ([2]; incubation time 30 min) was 98.5%, the “Stability in Physiological pH (%)” value ([2]; incubation time 60 min) was 98.9% and the “Stability in Physiological pH (%)” value ([2]; incubation time 120 min) was 98.5%. The tumour-to-blood ratio ([1]; one-hour p.i.) was 5.5 ± 2.0, the tumour-to-kidney ratio ([1]; one-hour p.i.) was 0.12 ± 0.03 and the tumour-to-kidney ratio ([1]; two hours post injection) was 1.26 ± 0.46. The tumour-to-blood ratio ([1]; two-hours p.i.) was 13.6 ± 7.0, the tumour-to-muscle ratio ([1]; two-hours p.i.) was 68.4 ± 66.1 and the “Binding to plasma proteins” value (human plasma proteins [5]; human, ref Benešová et al. [2018]) was 59%. The “Binding to human plasma proteins” value (human plasma proteins [5]; ref Umbricht et al. [2018]) was 59%, the “Stability in human serum (%)” value [6] was 98.4% and the “Binding to mouse serum proteins” value (mouse serum proteins) was 6%.

For O=C(O)CC[C@H](NC(=O)N[C@@H](CCCCNC(=O)[C@H](Cc1ccc2ccccc2c1)NC(=O)[C@H]1CC[C@H](CNC(=O)CN2CCN(CC(=O)O)CCN(CC(=O)O)CCN(CC(=O)O)CC2)CC1)C(=O)O)C(=O)O [PSMA-617, Glu-urea-Lys-2-Nal-L-Ala-CHX-DOTA, reference compound], the fraction unbound at 0 min, 2.25 kBq/100 µL ([7]; incubation time 0 min) was 0.47, the fraction unbound at 120 min, 2.25 kBq/100 µL ([7]; incubation time 120 min) was 0.46 and the “tumour-to-background ratio, fold higher than [68Ga]Ga-P19” value ([1]; two hours after administration) was about 1.5 fold. For the same compound, the Ki (PSMA; ref Benešová et al. [2015]) was 2.34 nM.
